Biological target: T1, Diacylglycerol O-acyltransferase 2 (Homo sapiens, UniProt Q96PD7)
T1 sequence (Q96PD7 whole entry): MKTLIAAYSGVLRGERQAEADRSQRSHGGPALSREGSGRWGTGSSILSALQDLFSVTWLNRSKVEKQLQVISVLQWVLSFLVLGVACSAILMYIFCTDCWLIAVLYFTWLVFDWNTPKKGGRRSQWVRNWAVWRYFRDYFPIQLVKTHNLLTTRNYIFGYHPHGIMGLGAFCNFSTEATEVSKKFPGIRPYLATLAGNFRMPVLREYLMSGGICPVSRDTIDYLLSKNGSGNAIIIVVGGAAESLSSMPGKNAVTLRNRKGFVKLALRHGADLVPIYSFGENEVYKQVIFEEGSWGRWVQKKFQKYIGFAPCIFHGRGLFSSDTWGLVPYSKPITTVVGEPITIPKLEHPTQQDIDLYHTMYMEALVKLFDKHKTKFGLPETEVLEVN
Experiment: DGAT2 Enzymatic Activity Assay
Method: DGAT2 activity was determined by measuring the amount of enzymatic product 13C18-triolein (13C-1,2,3-Tri(cis-9-octadecenoyl)glycerol) using the membrane prep mentioned above. The assay was carried out in ABgene 384-well assay plates in a final volume of 25 uL at rt.

O=C(NC1CN(C(=O)C(F)(F)F)C1)c1nc2ccc(Oc3ncc(Cl)cc3OCC(F)(F)F)cc2o1 [US20240254114, Example 8]
IC50: 1.01 µM

From BindingDB's records for patent US20240254114 (Merck Sharp & Dohme, 2024)
